Experimental data taken from patent US6627743B1, “6-O-methylerythromycin A crystal form III” (Abbott Laboratories, priority 1999, dated 2003).

What was measured:
[1] = Thermogravimetric analysis of the Form III solvate; type: physicochemical; conditions: 6 milligram sample, nitrogen purge, increase of 5° C. per minute (FIG. 4)
Description: Suitable temperatures for the conversion of the Form III solvate to the Form II crystal structure of 6-O-methylerythromycin A can vary depending on the conditions of the reaction. […] At atmospheric pressure, the preferred temperatures for the conversion of the Form III solvate to Form II are from about 80° C. to about 180° C. The more preferred temperatures for the conversion are from about 90° C. to about 105° C. Thermogravimetric analysis was conducted in the following manner. A T.A. Instruments Hi-Res thermogravimetric analyzer with Thermogravimetric Analyzer module 2950 was used along with DuPont 2100 TGA software version 5.1 A. The analysis parameters were: sample weight 6.3640 milligrams; heating rate was room temperature to 200° C. at 5° C./minute under a nitrogen purge.

[2] = Crystal form of the recrystallized solid after drying/heating, by powder X-ray diffraction; type: physicochemical
Description: Solids from the recrystallization were prepared according to the methods described above and analyzed under standard conditions with a calibrated Scintag X-ray diffraction system.
The wet solid was allowed to dry at room temperature. The air-dried sample was analyzed and the powder X-ray diffraction data was consistent with the powder X-ray diffraction pattern of a 6-O-methylerythromycin A Form III crystal structure. The air-dried sample was heated to a temperature between about 40° C. to about 45° C. in a calibrated vacuum oven for five days at atmospheric pressure.
A wet solid sample obtained from the recrystallization was heated in a calibrated convection oven to a temperature between about 100° C. and 105° C. […] The testing conditions and the corresponding result are summarized below in Table 1.
Crystallographic data was obtained by solvate single crystal analysis using a Scintag XDS-2000 powder X-ray diffraction system. Samples for X-ray diffraction analysis were prepared by spreading the sample powder (with no prior grinding required) in a thin layer on the sample holder and gently flattening the sample with a microscope slide. A Scintag X-ray Diffraction system was used with the following parameters: X-ray source is CuKα; range is 2-35°; scan rate is 1.00 degree/minute; step size is 0.0300 degree; and wavelength is 1.54060 angstroms.

## CC[C@H]1OC(=O)[C@H](C)[C@@H](OC2CC(C)(OC)C(O)C(C)O2)[C@H](C)[C@@H](OC2OC(C)CC(N(C)C)C2O)[C@@](C)(OC)C[C@@H](C)C(=O)[C@H](C)[C@@H](O)[C@]1(C)O (some centres unmarked) [Form III solvate, 6-O-methylerythromycin A acetonitrile solvate]
[1]
  Temperature of conversion of Form III solvate to Form II crystal structure: about 175 °C

## CC[C@H]1OC(=O)[C@H](C)[C@@H](OC2CC(C)(OC)C(O)C(C)O2)[C@H](C)[C@@H](OC2OC(C)CC(N(C)C)C2O)[C@@](C)(OC)C[C@@H](C)C(=O)[C@H](C)[C@@H](O)[C@]1(C)O (some centres unmarked) [Sample 4, 6-O-methylerythromycin A]
[2]; heat to 100° C.-105° C., 24 hours
  Analytical Result (crystal form by powder X-ray diffraction): Form II spectra

## CC[C@H]1OC(=O)[C@H](C)[C@@H](OC2CC(C)(OC)C(O)C(C)O2)[C@H](C)[C@@H](OC2OC(C)CC(N(C)C)C2O)[C@@](C)(OC)C[C@@H](C)C(=O)[C@H](C)[C@@H](O)[C@]1(C)O (some centres unmarked) [Sample 1, 6-O-methylerythromycin A acetonitrile solvate]
[2]; wet solid from acetonitrile recrystallization
  Analytical Result (crystal form by powder X-ray diffraction): Form III spectra

## CC[C@H]1OC(=O)[C@H](C)[C@@H](OC2CC(C)(OC)C(O)C(C)O2)[C@H](C)[C@@H](OC2OC(C)CC(N(C)C)C2O)[C@@](C)(OC)C[C@@H](C)C(=O)[C@H](C)[C@@H](O)[C@]1(C)O (some centres unmarked) [Sample 2, 6-O-methylerythromycin A acetonitrile solvate]
[2]; air dried solid, room temperature
  Analytical Result (crystal form by powder X-ray diffraction): Form III spectra

## CC[C@H]1OC(=O)[C@H](C)[C@@H](OC2CC(C)(OC)C(O)C(C)O2)[C@H](C)[C@@H](OC2OC(C)CC(N(C)C)C2O)[C@@](C)(OC)C[C@@H](C)C(=O)[C@H](C)[C@@H](O)[C@]1(C)O (some centres unmarked) [Sample 3, 6-O-methylerythromycin A acetonitrile solvate]
[2]; heat 40° C.-45° C., 5 days
  Analytical Result (crystal form by powder X-ray diffraction): Form III spectra
